Experimental data as given in patent US20260232597A1, “PHARMACEUTICAL COMPOSITION OF TRAMETINIB AND PROCESS OF PREPARATION THEREOF” (ALEMBIC PHARMACEUTICALS LIMITED, priority 2023, published 2026).
Values after ≈ are worked out from the molar mass of the structure shown. Values belong to the compound of their own block, whether it stands above or below them.

Assays:
[1] = Dissolution studies for Example 2 (TA0 to TA14); type: physicochemical; details: 4.5 Acetate Buffer + 0.75% SLS, Type II, 500 mL, 60 RPM
[2] = as disclosed in US'304 patent; cited from earlier work
[3] = Saturation solubility of drug substance in different dissolution media (incubator shaker, 24 hrs, HPLC); type: physicochemical; details: 37° C.; for solubility at 24 h: thermodynamic from solid
Description: Solubility study of drug substance was carried out in different dissolution media. The saturated solutions of drug substance were prepared in the recommended dissolution media. Initial pH of the saturated solutions was noted. Then the solutions were allowed to shake for 24 hours in the incubator shaker at 150 RPM. The temperature was kept around 37° C.±0.5° C. After 24 hours of shaking, pH of saturated solutions was noted. Further dilutions of these solutions were made as per the standard concentration. Analysis was carried out using HPLC technique. The sample was prepared in triplicates for saturation solubility determination.

[4] = cited from earlier work
[5] = pH 4.5 Acetate Buffer + 0.75% SDS
[6] = pH 6.8 Phosphate Buffer + 0.75% SDS
[7] = pH 7.0 Phosphate Buffer + 0.75% SDS

% DR ([1]; 5 mins): 2% | % DR ([1]; 10 mins): 3% | % DR ([1]; 15 mins): 5% | % DR ([1]; 20 mins): 7% | % DR ([1]; 30 mins): 9% | % DR ([1]; 45 mins): 13% | % DR ([1]; 60 mins): 16% | % DR ([1]; 90 mins): 23% | % DR ([1]; 120 mins): 29%
SMILES: CC(=O)Nc1cccc(-n2c(=O)n(C3CC3)c(=O)c3c(Nc4ccc(I)cc4F)n(C)c(=O)c(C)c32)c1.CC(=O)O [TA2, Trametinib acetic acid solvate]

% DR ([1]; 5 mins): 9% | % DR ([1]; 10 mins): 11% | % DR ([1]; 15 mins): 12% | % DR ([1]; 20 mins): 13% | % DR ([1]; 30 mins): 14% | % DR ([1]; 45 mins): 16% | % DR ([1]; 60 mins): 17% | % DR ([1]; 90 mins): 19% | % DR ([1]; 120 mins): 21% | Solubility mg/250 mL ([3]; 0.1N HCl + 0.75% SDS): 17 mg/250 mL | Solubility mg/500 mL ([3]; 0.1N HCl + 0.75% SDS): 33 mg/500 mL | Solubility mg/900 mL ([3]; 0.1N HCl + 0.75% SDS): 60 mg/900 mL | Solubility mg/250 mL ([3]; 0.1N HCl): 4.2 mg/250 mL | Solubility mg/500 mL ([3]; 0.1N HCl): 8 mg/500 mL | Solubility mg/900 mL ([3]; 0.1N HCl): 15 mg/900 mL | solubility at 24 h ([3]; aqueous buffer, pH 4.5 Acetate Buffer): 10 µg/mL (≈ 16.2 µM) | solubility at 24 h ([3]; aqueous buffer, pH 6.8 Phosphate Buffer): 20 µg/mL (≈ 32.5 µM) | solubility at 24 h ([3]; aqueous with cosolvent or surfactant or cyclodextrin, 0.1N HCl + 0.75% SDS): 70 µg/mL | solubility at 24 h ([3]; aqueous with cosolvent or surfactant or cyclodextrin, pH 4.5 Acetate Buffer + 0.75% SDS): 100 µg/mL | solubility at 24 h ([3]; aqueous with cosolvent or surfactant or cyclodextrin, pH 6.8 Phosphate Buffer + 0.75% SDS): 10 µg/mL | solubility at 24 h ([3]; aqueous with cosolvent or surfactant or cyclodextrin, pH 7.0 Phosphate Buffer + 0.75% SDS): 10 µg/mL | Solubility mg/250 mL [3, 5]: 24 mg/250 mL | Solubility mg/500 mL [3, 5]: 48 mg/500 mL | Solubility mg/900 mL [3, 5]: 87 mg/900 mL | Solubility mg/250 mL ([3]; pH 4.5 Acetate Buffer): 2.5 mg/250 mL | Solubility mg/500 mL ([3]; pH 4.5 Acetate Buffer): 5 mg/500 mL | Solubility mg/900 mL ([3]; pH 4.5 Acetate Buffer): 9 mg/900 mL | Solubility mg/250 mL [3, 6]: 3 mg/250 mL | Solubility mg/500 mL [3, 6]: 5 mg/500 mL | Solubility mg/900 mL [3, 6]: 9 mg/900 mL | Solubility mg/250 mL ([3]; pH 6.8 Phosphate Buffer): 4.2 mg/250 mL | Solubility mg/500 mL ([3]; pH 6.8 Phosphate Buffer): 8 mg/500 mL | Solubility mg/900 mL ([3]; pH 6.8 Phosphate Buffer): 15 mg/900 mL | Solubility mg/250 mL [3, 7]: 3 mg/250 mL | Solubility mg/500 mL [3, 7]: 5 mg/500 mL | Solubility mg/900 mL [3, 7]: 9 mg/900 mL | Solubility mg/250 mL ([3]; pH 7.0 Phosphate Buffer): 0.0 mg/250 mL | Solubility mg/500 mL ([3]; pH 7.0 Phosphate Buffer): 0 mg/500 mL | Solubility mg/900 mL ([3]; pH 7.0 Phosphate Buffer): 0 mg/900 mL | solubility at 24 h ([3]; simulated gastric fluid, 0.1N HCl): 20 µg/mL (≈ 32.5 µM)
SMILES: CC(=O)Nc1cccc(-n2c(=O)n(C3CC3)c(=O)c3c(Nc4ccc(I)cc4F)n(C)c(=O)c(C)c32)c1 [Trametinib, N-(3-{3-Cyclopropyl-5-[(2-fluoro-4-iodophenyl)amino]-6,8-dimethyl-2,4,7-trioxo-3,4,6,7-tetrahydropyrido[4,3-d]pyrimidin-1 (2H)-yl}phenyl) acetamide]
Exposure and absorption upon in vivo administration [2]: poor exposure and absorption | Solubility relative to dimethyl sulfoxide solvate ([4]; as disclosed in US'304 patent): much less soluble than dimethyl sulfoxide solvate of Trametinib

% DR ([1]; 5 mins): 27% | % DR ([1]; 10 mins): 34% | % DR ([1]; 15 mins): 38% | % DR ([1]; 20 mins): 39% | % DR ([1]; 30 mins): 41% | % DR ([1]; 45 mins): 42% | % DR ([1]; 60 mins): 43% | % DR ([1]; 90 mins): 44% | % DR ([1]; 120 mins): 44% | Average solubility ([3]; 0.1N HCl + 0.75% SDS): 50 µg/mL | Solubility mg/250 mL ([3]; 0.1N HCl + 0.75% SDS): 11.7 mg/250 mL | Solubility mg/500 mL ([3]; 0.1N HCl + 0.75% SDS): 23 mg/500 mL | Solubility mg/900 mL ([3]; 0.1N HCl + 0.75% SDS): 42 mg/900 mL | Solubility mg/250 mL ([3]; 0.1N HCl): 0.8 mg/250 mL | Solubility mg/500 mL ([3]; 0.1N HCl): 2 mg/500 mL | Solubility mg/900 mL ([3]; 0.1N HCl): 3 mg/900 mL | Average solubility [3, 5]: 240 µg/mL | Solubility mg/250 mL [3, 5]: 60.0 mg/250 mL | Solubility mg/500 mL [3, 5]: 120 mg/500 mL | Solubility mg/900 mL [3, 5]: 216 mg/900 mL | Solubility mg/250 mL ([3]; pH 4.5 Acetate Buffer): 0.0 mg/250 mL | Solubility mg/500 mL ([3]; pH 4.5 Acetate Buffer): 0 mg/500 mL | Solubility mg/900 mL ([3]; pH 4.5 Acetate Buffer): 0 mg/900 mL | Average solubility [3, 6]: 70 µg/mL | Solubility mg/250 mL [3, 6]: 18.3 mg/250 mL | Solubility mg/500 mL [3, 6]: 37 mg/500 mL | Solubility mg/900 mL [3, 6]: 66 mg/900 mL | Solubility mg/250 mL ([3]; pH 6.8 Phosphate Buffer): 0.0 mg/250 mL | Solubility mg/500 mL ([3]; pH 6.8 Phosphate Buffer): 0 mg/500 mL | Solubility mg/900 mL ([3]; pH 6.8 Phosphate Buffer): 0 mg/900 mL | Average solubility [3, 7]: 70 µg/mL | Solubility mg/250 mL [3, 7]: 18.3 mg/250 mL | Solubility mg/500 mL [3, 7]: 37 mg/500 mL | Solubility mg/900 mL [3, 7]: 66 mg/900 mL | Solubility mg/250 mL ([3]; pH 7.0 Phosphate Buffer): 0.0 mg/250 mL | Solubility mg/500 mL ([3]; pH 7.0 Phosphate Buffer): 0 mg/500 mL | Solubility mg/900 mL ([3]; pH 7.0 Phosphate Buffer): 0 mg/900 mL
SMILES: CC(=O)Nc1cccc(-n2c(=O)n(C3CC3)c(=O)c3c(Nc4ccc(I)cc4F)n(C)c(=O)c(C)c32)c1.C[S+](C)[O-] [Trametinib DMSO, Trametinib dimethyl sulfoxide]
Solubility in aqueous media ([4]; pH range of 2 to 8): practically insoluble
